Measurements from PubChem BioAssay (NCI).
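Exposure lasted 48 hours, with cells grown in 96-well plates and compounds tested at five concentrations. TGI is the concentration that stops growth completely.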

What was measured:
Assay in all cases: DTP human tumour cell line panel, 48 h
SF-539 CNS = system: SF-539 CNS
SN12C renal = system: SN12C renal
MOLT-4 leukemia = system: MOLT-4 leukemia
DU-145 prostate = system: DU-145 prostate
HCC-2998 colon = system: HCC-2998 colon
LOX IMVI melanoma = system: LOX IMVI melanoma
NCI-H23 lung = system: NCI-H23 lung
786-0 renal = system: 786-0 renal
K-562 leukemia = system: K-562 leukemia
M14 melanoma = system: M14 melanoma
NCI/ADR-RES ovarian = system: NCI/ADR-RES ovarian
SNB-19 CNS = system: SNB-19 CNS
KM12 colon = system: KM12 colon
SF-295 CNS = system: SF-295 CNS
MDA-N = system: MDA-N
MCF7 breast = system: MCF7 breast
HOP-62 NSCLC = system: HOP-62 NSCLC
NCI-H460 lung = system: NCI-H460 lung
NCI-H522 lung = system: NCI-H522 lung
SK-MEL-2 melanoma = system: SK-MEL-2 melanoma
OVCAR-4 ovarian = system: OVCAR-4 ovarian
MALME-3M melanoma = system: MALME-3M melanoma
OVCAR-8 ovarian = system: OVCAR-8 ovarian
A549 NSCLC = system: A549 NSCLC
HCT-116 colon = system: HCT-116 colon
COLO 205 colon = system: COLO 205 colon
IGROV1 ovarian = system: IGROV1 ovarian
HS 578T breast = system: HS 578T breast
OVCAR-5 ovarian = system: OVCAR-5 ovarian
CCRF-CEM leukemia = system: CCRF-CEM leukemia
T-47D breast = system: T-47D breast
SF-268 CNS = system: SF-268 CNS
PC-3 prostate = system: PC-3 prostate
A498 renal = system: A498 renal
SW-620 colon = system: SW-620 colon
UO-31 renal = system: UO-31 renal
EKVX NSCLC = system: EKVX NSCLC
OVCAR-3 ovarian = system: OVCAR-3 ovarian
SK-MEL-28 melanoma = system: SK-MEL-28 melanoma
SR leukemia = system: SR leukemia
RXF 393 renal = system: RXF 393 renal
SK-OV-3 ovarian = system: SK-OV-3 ovarian
UACC-62 melanoma = system: UACC-62 melanoma
ACHN renal = system: ACHN renal
TK-10 renal = system: TK-10 renal
MDA-MB-435 = system: MDA-MB-435
SK-MEL-5 melanoma = system: SK-MEL-5 melanoma
UACC-257 melanoma = system: UACC-257 melanoma
CAKI-1 renal = system: CAKI-1 renal
HCT-15 colon = system: HCT-15 colon
HL-60(TB) leukemia = system: HL-60(TB) leukemia
BT-549 breast = system: BT-549 breast
HT29 colon = system: HT29 colon
HOP-92 NSCLC = system: HOP-92 NSCLC
MDA-MB-231 breast = system: MDA-MB-231 breast
NCI-H226 lung = system: NCI-H226 lung
SNB-75 CNS = system: SNB-75 CNS
RPMI-8226 leukemia = system: RPMI-8226 leukemia
U251 CNS = system: U251 CNS

COCCCNc1c2ccccc2nc2ccccc12
TGI (SF-539 CNS): 8.59 µM | TGI (SN12C renal): 15.1 µM | TGI (MOLT-4 leukemia): > 100 µM | TGI (DU-145 prostate): 9.75 µM | TGI (HCC-2998 colon): 4.58 µM | TGI (LOX IMVI melanoma): 5.67 µM | TGI (NCI-H23 lung): 10.3 µM | TGI (786-0 renal): 17.9 µM | TGI (K-562 leukemia): 23.6 µM | TGI (M14 melanoma): 3.89 µM | TGI (NCI/ADR-RES ovarian): 33.6 µM | TGI (SNB-19 CNS): 6.41 µM | TGI (KM12 colon): 24.6 µM | TGI (SF-295 CNS): 14.9 µM | TGI (MDA-N): 8.78 µM | TGI (MCF7 breast): 5.27 µM | TGI (HOP-62 NSCLC): 12.2 µM | TGI (NCI-H460 lung): 3.55 µM | TGI (NCI-H522 lung): 6.8 µM | TGI (SK-MEL-2 melanoma): 4.89 µM | TGI (OVCAR-4 ovarian): 20.6 µM | TGI (MALME-3M melanoma): 7.17 µM | TGI (OVCAR-8 ovarian): 15.5 µM | TGI (A549 NSCLC): 14 µM | TGI (HCT-116 colon): 15.7 µM | TGI (COLO 205 colon): 6.73 µM | TGI (IGROV1 ovarian): 22.9 µM | TGI (HS 578T breast): 9.32 µM | TGI (OVCAR-5 ovarian): 6.93 µM | TGI (CCRF-CEM leukemia): 60.6 µM | TGI (T-47D breast): 6.89 µM | TGI (SF-268 CNS): 16.8 µM | TGI (PC-3 prostate): 5.68 µM | TGI (A498 renal): 15.2 µM | TGI (SW-620 colon): 12.6 µM | TGI (UO-31 renal): 8.01 µM | TGI (EKVX NSCLC): 27.3 µM | TGI (OVCAR-3 ovarian): 7.55 µM | TGI (SK-MEL-28 melanoma): 6.54 µM | TGI (SR leukemia): 12.1 µM | TGI (RXF 393 renal): 14.2 µM | TGI (SK-OV-3 ovarian): 12.4 µM | TGI (UACC-62 melanoma): 6.35 µM | TGI (ACHN renal): 2.39 µM | TGI (TK-10 renal): 89.8 µM | TGI (MDA-MB-435): 12.7 µM | TGI (SK-MEL-5 melanoma): 4.51 µM | TGI (UACC-257 melanoma): 7.03 µM | TGI (CAKI-1 renal): 3.75 µM | TGI (HCT-15 colon): 3.38 µM | TGI (HL-60(TB) leukemia): 15.2 µM | TGI (BT-549 breast): 53.2 µM | TGI (HT29 colon): 51.8 µM | TGI (HOP-92 NSCLC): 12.5 µM | TGI (MDA-MB-231 breast): 12.5 µM

O=C(CC(C(=O)c1cccs1)c1ccc2c(c1)OCO2)c1ccccc1 (centres undefined)
TGI (SF-539 CNS): > 100 µM | TGI (SN12C renal): > 100 µM | TGI (DU-145 prostate): > 100 µM | TGI (NCI-H226 lung): > 100 µM | TGI (HCC-2998 colon): > 100 µM | TGI (LOX IMVI melanoma): > 100 µM | TGI (NCI-H23 lung): > 100 µM | TGI (786-0 renal): > 100 µM | TGI (M14 melanoma): > 100 µM | TGI (NCI/ADR-RES ovarian): > 100 µM | TGI (SNB-19 CNS): > 100 µM | TGI (KM12 colon): > 100 µM | TGI (SF-295 CNS): > 100 µM | TGI (MDA-N): > 100 µM | TGI (MCF7 breast): > 100 µM | TGI (HOP-62 NSCLC): > 100 µM | TGI (SNB-75 CNS): > 100 µM | TGI (NCI-H460 lung): > 100 µM | TGI (NCI-H522 lung): > 100 µM | TGI (SK-MEL-2 melanoma): > 100 µM | TGI (OVCAR-4 ovarian): > 100 µM | TGI (MALME-3M melanoma): > 100 µM | TGI (OVCAR-8 ovarian): > 100 µM | TGI (A549 NSCLC): > 100 µM | TGI (HCT-116 colon): > 100 µM | TGI (COLO 205 colon): > 100 µM | TGI (IGROV1 ovarian): > 100 µM | TGI (HS 578T breast): > 100 µM | TGI (T-47D breast): > 100 µM | TGI (SF-268 CNS): > 100 µM | TGI (PC-3 prostate): > 100 µM | TGI (A498 renal): > 100 µM | TGI (SW-620 colon): > 100 µM | TGI (UO-31 renal): > 100 µM | TGI (OVCAR-3 ovarian): > 100 µM | TGI (SK-MEL-28 melanoma): > 100 µM | TGI (SR leukemia): > 100 µM | TGI (RXF 393 renal): > 100 µM | TGI (SK-OV-3 ovarian): > 100 µM | TGI (RPMI-8226 leukemia): > 100 µM | TGI (UACC-62 melanoma): > 100 µM | TGI (ACHN renal): > 100 µM | TGI (TK-10 renal): > 100 µM | TGI (MDA-MB-435): > 100 µM | TGI (SK-MEL-5 melanoma): > 100 µM | TGI (UACC-257 melanoma): > 100 µM | TGI (U251 CNS): > 100 µM | TGI (CAKI-1 renal): > 100 µM | TGI (HCT-15 colon): > 100 µM | TGI (HL-60(TB) leukemia): > 100 µM | TGI (BT-549 breast): > 100 µM | TGI (HT29 colon): > 100 µM | TGI (HOP-92 NSCLC): > 100 µM | TGI (MDA-MB-231 breast): > 100 µM
